Measurements reported in patent publication EP1129097B1, “NOVEL TYPE CONDENSED PYRIDAZINONE COMPOUNDS” (GYOGYSZERKUTATO INTEZET KFT., priority 1998, dated 2000).

Key:
[1] = tested on: scopolamine-induced memory-deficit in rats; assay: passive avoidance test, counter-balancing scopolamine-induced memory-deficit; format: in vivo; conditions: oral doses of 50 mg/kg
Protocol: The memory-enhancing effect of the compounds according to the invention was measured by counter-balancing the scopolamine-induced memory-deficit in rats, with oral doses of 50 mg/kg, in the passive avoidance test published by Cumin, R. et al. [Psychopharmacology, 78, 104 (1982)].

AMPA = assay: AMPA-induced spreading depression of chick retina; conditions: concentration of 20 µM
Protocol: The AMPA antagonistic effect of the compounds was also tested on spreading depression of chick retina (Sheardown, M. J.: Brain Res., 1993, 607, 189) in a concentration of 20 µM.

Row | SMILES | Memory improvement compared to amnesic control (%) [1] [%] | Antagonistic effect on AMPA-induced spreading depression (%) (AMPA)
1 | Cn1ncc2c(c1=O)SCCNC2C(=O)c1ccccc1 (stereo not shown) [Example 3, 5-Benzoyl-8-methyl-2,3,4,5-tetrahydro-9(8H)-pyridazino[4,5-b][1,5]thiazepinone] | 100 | 10
2 | O=c1c2c(cnn1CC=Cc1ccccc1)N(Cc1ccccc1)CCCO2 [Example 7, 5-Benzyl-8-cynnamyl-2,3,4,5-tetrahydro-9(8H)-pyridazino[4,5-b] [1,5]oxazepinone] | 250 | 16
